The target in one experiment is hBTK (full-length BTK, 6HIS-tag cleaved) (Homo sapiens (Human), UniProt Q06187). In words: BTK enzymatic activity, LANCE TR-FRET assay (Assay Method C). The class given is biochemical. Conditions: LANCE TR-FRET, 50 pM hBTK, 25 μM ATP; class 100-1000 is given as ≧100 nM-<1 μM; read-out: IC50 Btk activity values - Assay Method C. A general note: TR-FRET usually uses a lanthanide donor and a delayed reading to cut background.
Sequence of hBTK (full-length BTK, 6HIS-tag cleaved) (Q06187 whole entry): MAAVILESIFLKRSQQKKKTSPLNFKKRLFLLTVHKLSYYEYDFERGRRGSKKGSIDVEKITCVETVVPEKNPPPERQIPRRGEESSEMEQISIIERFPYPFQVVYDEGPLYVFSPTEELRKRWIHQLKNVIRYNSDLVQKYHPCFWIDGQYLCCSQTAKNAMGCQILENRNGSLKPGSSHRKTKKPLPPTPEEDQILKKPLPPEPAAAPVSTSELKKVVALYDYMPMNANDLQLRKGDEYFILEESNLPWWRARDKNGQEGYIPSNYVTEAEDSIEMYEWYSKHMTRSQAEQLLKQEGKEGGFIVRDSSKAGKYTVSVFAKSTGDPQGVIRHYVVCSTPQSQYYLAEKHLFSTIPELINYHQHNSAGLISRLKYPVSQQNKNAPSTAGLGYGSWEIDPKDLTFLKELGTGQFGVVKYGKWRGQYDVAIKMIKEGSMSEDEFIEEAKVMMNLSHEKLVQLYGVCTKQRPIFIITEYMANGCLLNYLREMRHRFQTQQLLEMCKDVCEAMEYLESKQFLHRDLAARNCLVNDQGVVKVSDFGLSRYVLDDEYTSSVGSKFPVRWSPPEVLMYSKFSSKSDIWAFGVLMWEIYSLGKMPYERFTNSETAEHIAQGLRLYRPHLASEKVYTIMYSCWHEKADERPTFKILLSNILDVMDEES
One may read the IC50 as the concentration at which inhibition is half-maximal. `C[C@@H](O)c1cnc(N)c2c(-c3ccc(C(=O)Nc4cc(C(F)(F)F)ccn4)cc3)nc([C@@H]3CCCN(C(=O)C4(C)COC4)C3)n12` [Example 465, 4-(8-amino-5-[(1R)-1-hydroxyethyl]-3-{(3R)-1-[(3-methyloxetan-3-yl)carbonyl]piperidin-3-yl}imidazo[1,5-a]pyrazin-1-yl)-N-[4-(trifluoromethyl)pyridin-2-yl]benzamide]: the IC50 is less than 10 nM.

Turning to `C[C@H](O)c1cnc(N)c2c(-c3ccc(C(=O)Nc4cc(C(F)(F)F)ccn4)cc3)nc([C@@H]3CCCN(C(=O)C4(C)COC4)C3)n12` [Example 466, 4-(8-amino-5-[(1S)-1-hydroxyethyl]-3-{(3R)-1-[(3-methyloxetan-3-yl)carbonyl]piperidin-3-yl}imidazo[1,5-a]pyrazin-1-yl)-N-[4-(trifluoromethyl)pyridin-2-yl]benzamide], the IC50 was less than 10 nM.

In the case of `CO[C@H](C)c1cnc(N)c2c(-c3ccc(C(=O)Nc4cc(C(F)(F)F)ccn4)cc3)nc([C@@H]3CCCN(C(=O)C4(C)COC4)C3)n12` [Example 467, 4-(8-amino-5-[(1R)-1-methoxyethyl]-3-{(3R)-1-[(3-methyloxetan-3-yl)carbonyl]piperidin-3-yl}imidazo[1,5-a]pyrazin-1-yl)-N-[4-(trifluoromethyl)pyridin-2-yl]benzamide], the IC50 was less than 10 nM.

For `CO[C@@H](C)c1cnc(N)c2c(-c3ccc(C(=O)Nc4cc(C(F)(F)F)ccn4)cc3)nc([C@@H]3CCCN(C(=O)C4(C)COC4)C3)n12` [Example 468, 4-(8-amino-5-[(1S)-1-methoxyethyl]-3-{(3R)-1-[(3-methyloxetan-3-yl)carbonyl]piperidin-3-yl}imidazo[1,5-a]pyrazin-1-yl)-N-[4-(trifluoromethyl)pyridin-2-yl]benzamide], the IC50 was less than 10 nM.

Turning to `CC1(C(=O)N2CCC[C@@H](c3nc(-c4ccc(C(=O)Nc5cc(C(F)(F)F)ccn5)cc4)c4c(N)ncc(C5(O)COC5)n34)C2)COC1` [Example 469, 4-[8-amino-5-(3-hydroxyoxetan-3-yl)-3-{(3R)-1-[(3-methyloxetan-3-yl)carbonyl]piperidin-3-yl}imidazo[1,5-a]pyrazin-1-yl]-N-[4-(trifluoromethyl)pyridin-2-yl]benzamide], the half-maximal inhibitory concentration (IC50) lay in the range of 10 to 100 nM.

For the molecule `CC1(C(=O)N2CCC[C@@H](c3nc(-c4ccc(C(=O)Nc5cc(C(F)(F)F)ccn5)cc4)c4c(N)ncc(C(F)(F)F)n34)C2)COC1` [Example 470, 4-[8-amino-3-{(3R)-1-[(3-methyloxetan-3-yl)carbonyl]piperidin-3-yl}-5-(trifluoromethyl)imidazo[1,5-a]pyrazin-1-yl]-N-[4-(trifluoromethyl)pyridin-2-yl]benzamide], the IC50 was less than 10 nM.

Take `CC1(C(=O)N2CCC[C@@H](c3nc(-c4ccc(C(=O)Nc5cc(C(F)(F)F)ccn5)cc4)c4c(N)ncc(CO)n34)C2)COC1` [Example 471, 4-[8-amino-5-(hydroxymethyl)-3-{(3R)-1-[(3-methyloxetan-3-yl)carbonyl]piperidin-3-yl}imidazo[1,5-a]pyrazin-1-yl]-N-[4-(trifluoromethyl)pyridin-2-yl]benzamide]: the IC50 is less than 10 nM.

Consider `C[C@H]1CC[C@@H](c2nc(-c3ccc(C(=O)Nc4cc(C(F)(F)F)ccn4)c(F)c3)c3c(N)nccn23)CN1C(=O)C1(C)COC1` [Example 476, 4-(8-amino-3-{(3R,6S)-6-methyl-1-[(3-methyloxetan-3-yl)carbonyl]piperidin-3-yl}imidazo[1,5-a]pyrazin-1-yl)-2-fluoro-N-[4-(trifluoromethyl)pyridin-2-yl]benzamide], for which the IC50 is less than 10 nM.

`CC1(C(=O)N2CCC[C@@H](c3nc(-c4ccc(C(=O)Nc5cc(OC(F)F)ccn5)cc4F)c4c(N)nccn34)C2)COC1` [Example 478, 4-(8-amino-3-{(3R)-1-[(3-methyloxetan-3-yl)carbonyl]piperidin-3-yl}imidazo[1,5-a]pyrazin-1-yl)-N-[4-(difluoromethoxy)pyridin-2-yl]-3-fluorobenzamide]: the IC50 is less than 10 nM.

The same experiment, now with this note: Table D; Assay Method C (LANCE TR-FRET), 50 pM hBTK, 25 μM ATP; read-out: IC50 BTK activity value.
As for `C[C@H]1CC[C@@H](c2nc(-c3ccc(C(=O)Nc4cc(C(F)(F)F)ccn4)c(F)c3)c3c(N)nccn23)CN1C(=O)C1(C)COC1` [Example 476, 4-(8-amino-3-{(3R,6S)-6-methyl-1-[(3-methyloxetan-3-yl)carbonyl]piperidin-3-yl}imidazo[1,5-a]pyrazin-1-yl)-2-fluoro-N-[4-(trifluoromethyl)pyridin-2-yl]benzamide], the concentration for half-maximal inhibition (IC50) was 0.322 nM.
